Laboratory results from publication PMC10043345, “Discovery of BAR502, as potent steroidal antagonist of leukemia inhibitory factor receptor for the treatment of pancreatic adenocarcinoma” (Frontiers in Oncology, 2023).
Values joined by “and” are separate entries in the source; they are usually repeats but may differ in a detail not shown here. Equal entries are not always repeated. Blank lines part the entries; values can stand above or below the molecule they belong to.

Tests used:
LIF/LIFR complex = target: T1, LIF/LIFR complex (Homo sapiens, UniProt P42702); experiment: Alpha Screen inhibition of LIFR/LIF binding (cell-free); conditions: for IC50: cell-free, LIFR 4.5 nM, biotinylated LIF 9 nM, read-out: LIFR IC50 AlphaScreen (inhibition of LIFR/LIF binding)
T1 construct: purchased Sino Biological (LIFR); R&D Systems (LIF)
T1 sequence (P42702 45-833 limits assumed): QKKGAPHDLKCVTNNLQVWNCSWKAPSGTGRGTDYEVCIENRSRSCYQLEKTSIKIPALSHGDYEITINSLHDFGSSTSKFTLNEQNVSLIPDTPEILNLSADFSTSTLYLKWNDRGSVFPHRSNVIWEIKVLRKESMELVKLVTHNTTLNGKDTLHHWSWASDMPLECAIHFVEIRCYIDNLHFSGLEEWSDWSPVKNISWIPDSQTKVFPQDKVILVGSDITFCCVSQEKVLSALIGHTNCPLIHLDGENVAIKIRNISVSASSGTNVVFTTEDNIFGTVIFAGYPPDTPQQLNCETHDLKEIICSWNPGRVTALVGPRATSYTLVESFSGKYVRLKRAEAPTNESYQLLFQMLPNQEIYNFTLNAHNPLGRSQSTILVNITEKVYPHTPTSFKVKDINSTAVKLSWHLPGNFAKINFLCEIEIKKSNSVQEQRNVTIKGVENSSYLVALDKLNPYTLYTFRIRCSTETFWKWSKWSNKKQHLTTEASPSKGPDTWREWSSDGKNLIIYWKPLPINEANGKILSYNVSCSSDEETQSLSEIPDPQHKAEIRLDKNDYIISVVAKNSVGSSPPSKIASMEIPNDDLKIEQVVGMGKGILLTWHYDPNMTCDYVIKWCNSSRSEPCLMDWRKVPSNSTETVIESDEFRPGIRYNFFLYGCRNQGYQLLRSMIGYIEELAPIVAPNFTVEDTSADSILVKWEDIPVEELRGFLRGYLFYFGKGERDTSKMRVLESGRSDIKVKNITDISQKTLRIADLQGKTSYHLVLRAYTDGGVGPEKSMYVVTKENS
Experimental: Recombinant human LIFR (His Tag) and biotinylated recombinant human LIF were purchased from Sino Biologicals (Sino Biological Europe GmbH, Dusseldorf, Germany) and R&D Systems (Abingdon, UK), respectively, and both were reconstituted as required by the manufacturer. […] The assay was carried out in white, low-volume, 384-well AlphaPlates (PerkinElmer, Waltham, MA, USA) using a final volume of 25 µL and an assay buffer containing 25 mM Hepes (pH 7.4), 100 mM NaCl, and 0.005% Kathon. The concentration of DMSO in each well was maintained at 5%. […] Then, LIF was added (biotinylated, final concentration 9 nM), and the samples were incubated for 15 min prior to adding His-Tag acceptor beads (final concentration 20 ng/µL) for 30 min. Then, streptavidin donor beads were added (final concentration 20 ng/µL), and the plate was incubated in the dark for 2 h and then read in an EnSpire Alpha multimode plate reader (PerkinElmer, Waltham, MA, USA).

MIA PaCa-2 cells [1] = experiment: Scratch wound healing assay; type: cell-based, human; conditions: BAR502 10 µM + LIF 10 ng/mL; 0, 24, 48 h
Experimental: MIA PaCa-2 cells were seeded in DMEM complete medium at […] cells/well into 24-well plate and used at 70-80% confluence rate. The assay was performed as previously described ([20]), particularly on the day 1, the cell monolayers were gently scraped vertically with a new 0.2 mL pipette tip across the centre of the well. After scratching, the well was gently washed twice with PBS (Euroclone, Milan, Italy) to remove the detached cells and cell debris and finally fresh medium containing LIF (10 ng/mL) alone or in combination with BAR502 (10 µM) or EC359 (25 nM) was added into each well. Immediately after scratch creation, the 24-plate was placed under a phase-contrast microscope and the first image of the scratch acquired (T0) with using a OPTIKAM Pro Cool 5 – 4083.CL5 camera. Cells were grown for additional 48 h and images taken at 24h (T1) and 48 h (T2). The gap distance between scarps borders was quantified by assessing that area between the two margins of the scratches. All experiments were performed in triplicate.

MIA PaCa-2 cells [2] = experiment: AmpliSeq transcriptome (RNAseq) analysis; type: cell-based, human; conditions: LIF 10 ng/mL + BAR502 10 µM versus LIF, 24 h
Experimental: MIA PaCa-2 cells were cultured in 6-well tissue culture plate (cell density 1.5 * 10^6/well) in DMEM complete medium. After serum starving, cells were exposed with LIF (10 ng/mL) alone or plus BAR502 (10 µM) or left untreated for 24h. High-quality RNA was extracted from MIA PaCa-2 cells using the PureLink™ RNA Mini Kit (Thermo Fisher Scientific), according to the manufacturer’s instructions. RNA quality and quantity were assessed with the Qubit® RNA HS Assay Kit and a Qubit 3.0 fluorometer followed by agarose gel electrophoresis. Libraries were generated using the Ion AmpliSeq™ Transcriptome Human Gene Expression Core Panel and Chef-Ready Kit (Thermo Fisher Scientific), according to the manufacturer’s instructions. Briefly, 10 ng of RNA was reverse transcribed with SuperScript™ Vilo™ cDNA Synthesis Kit (Thermo Fisher Scientific, Waltham, MA) before library preparation on the Ion Chef™ instrument (Thermo Fisher Scientific, Waltham, MA). The resulting cDNA was amplified to prepare barcoded libraries using the Ion Code™ PCR Plate, and the Ion AmpliSeq™ Transcriptome Human Gene Expression Core Panel (Thermo Fisher Scientific, Waltham, MA), Chef-Ready Kit, according to the manufacturer’s instructions. Barcoded libraries were combined to a final concentration of 100 pM, and used to prepare Template-Positive Ion Sphere™ (Thermo Fisher Scientific, Waltham, MA) Particles to load on Ion 540™ Chips, using the Ion 540™ Kit-Chef (Thermo Fisher Scientific, Waltham, MA). Sequencing was performed on an Ion S5™ Sequencer with Torrent Suite™ Software v6 (Thermo Fisher Scientific). The analyses were performed with a range of fold <−2 and >+2 and a p value < 0.05, using Transcriptome Analysis Console Software (version 4.0.2), certified for AmpliSeq analysis (Thermo-Fisher). The transcriptomic data have been deposited as dataset on Mendeley data repository […].

SMILES: CC[C@H]1[C@@H](O)C2C3CC[C@H]([C@H](C)CCO)[C@@]3(C)CCC2[C@@]2(C)CC[C@@H](O)C[C@@H]12 (some centres unmarked) [BAR502]
IC50 (LIF/LIFR complex): 3.6 µM and 3.59 µM
reduction of detachment and migration compared to LIF (MIA PaCa-2 cells [1]): ≈ 40%
CCND2 expression Fold Change (FC) (MIA PaCa-2 cells [2]): 16,13
KIF20A expression Fold Change (FC) (MIA PaCa-2 cells [2]): -17,49
RRM2 expression Fold Change (FC) (MIA PaCa-2 cells [2]): -14,34
SESN2 expression Fold Change (FC) (MIA PaCa-2 cells [2]): 15,84
SLC7A11 expression Fold Change (FC) (MIA PaCa-2 cells [2]): 35,54
TNFRSF1B (TNFR2) expression Fold Change (FC) (MIA PaCa-2 cells [2]): -11,72
TOP2A expression Fold Change (FC) (MIA PaCa-2 cells [2]): -9,61

effect on LIF/LIFR complex formation (LIFR antagonism), in words (LIF/LIFR complex; cell-free Alpha Screen): inactive
IC50 (LIF/LIFR complex): 97.5 ± 29.3 µM
SMILES: OCc1ccc(-c2ccc(OCc3cc(-c4c(Cl)cccc4Cl)no3)cc2)cc1 [PDL103, (4’-((3-(2,6-dichlorophenyl)isoxazol-5-yl)methoxy)-[1,1’-biphenyl]-4-yl)methanol]
